Experiment [1] concerns laser-induced thrombosis in the arterioles and venules of the rat mesentery. The experiment in a line: laser-induced thrombosis in arterioles of the rat mesentery. In kind it is in vivo, rat (female Sprague-Dawley). As to conditions: for percentage improvement compared with the placebo controls: 10 mg/kg xanthine derivative and, 1 hour later, 1 mg/kg acetylsalicylic acid orally; for percentage improvement compared with the placebo controls / inhibition in vivo at 10 mg/kg: n = 3; for inhibition in vivo at 10 mg/kg: Rattus norvegicus, po, 10 mg/kg xanthine derivative orally, read-out: percentage improvement compared with the placebo controls; for Changes from controls, % / Changes from controls, absolute / Number of shots: single substance. As for the experimental part: The evaluation was carried out by analysis by vital microscopy (Nature, 218 (1968) 887 and Haemostasis 13 (1983) 61 and IRCS Med. Sci. 12 (1984) 91).
The test substances were administered in 0.9% sodium chloride solution (which contained 1% carboxymethylcellulose (Serva, Heidelberg)) either orally, intraperitoneally or intravenously. Control animals were treated in the corresponding manner but without the test substances. The experimental animals used were male or female Sprague-Dawley or Wistar rats.
The animals which were to be investigated underwent s.c. premedication with 0.1 mg of atropine sulfate in solution and were anesthetized with 100 mg of ketamine hydrochloride and 4 mg of xylazine per kg of body weight i.p. The investigation made use of arterioles and venules of the mesentery, which was coated with degassed liquid paraffin, having a diameter of about 13 μm. The beam of a 4 W argon laser (supplied by Spectra Physics, Darmstadt) was introduced coaxially, by means of a beam adaptation and adjustment system (supplied by BTG, Munich), into the inverted optical path of a microscope (ICM 405, LD-Epipland 40/0.60; supplied by Zeiss, Oberkochen). The wavelength used was 514.5 nm, with an energy above the objective of 30.5 mW. The exposure time per single shot was 1/15 sec. All the measuring operations were recorded by video camera (Trinicon tube, Sony, Cologne) and stored in a recorder (Sony, U-matic 3/4"). The test substances were administered in various doses to the experimental animals, orally one hour, and on i.v. administration 10 min., before the start of the experiment, control animals receiving the same amount of placebo.
The number of shots needed to induce a defined thrombus is counted.
The results of the experiment were subjected to statistical analysis using the .chi.^2 test (L. Cavalli-Sforza, Biometrie (Biostatistics), Stuttgart, 1969, pages 49 et seq.). […]

The subject of experiment [2] is platelet aggregation. In words: ex vivo platelet aggregation (arachidonic acid, Born aggregometer). The format is in vivo, rabbit.
In experiment [3] the test system is erythrocyte filterability. In words: erythrocyte filterability in adjuvant arthritis rats. In kind it is in vivo, rat. As to conditions: oral 21 days. As for the experimental part:
(§1) The hemorheological, antithrombotic, antiaggregatory and antiinflammatory effects of the combinations according to the invention were investigated after oral administration for 21 days in the pathological model of adjuvant arthritis (induced with Mycobacterium butyricum) is the rat by the method of Clincal Hemorheology 3 (1983) 469-480, and were compared with those of the appropriate individual substances. Blood was taken from the thoracic aorta 1 hour after the last administration of substance. All the details of the determination of the hemorheological effect were as described in Clinical Hemorheology 4 (1984) 263-273. The erythocyte deformability was quantitatively determined in a filtrometer (Myrenne MF 4, Roetgen, Germany) by evaluation of the initial gradient of the flow curve.

Experiment [4] deals with tendency to thrombosis in arthritic rat. In words: laser-induced tendency to thrombosis in arthritic rats. As to conditions: 30 mg, oral 21 days. In kind it is in vivo. As for the experimental part:
as §1
The antithrombotic effect was measured using the laser model as described above.

Experiment [5] relates to induced platelet aggregation. The experiment in a line: collagen-induced platelet aggregation in arthritic rats. In kind it is in vivo, rat. The note with it: 30 mg, oral 21 days. As for the experimental part:
as §1
The measurements of platelet aggregation were carried out as described above in detail. However, instead of arachidonic acid 0.04 mg of collagen was used to induce platelet aggregation in 1 ml of platelet-rich plasma (PA II aggregometer from Myrenne, Roetgen).

In experiment [6] the test system is adjuvant arthritis (Mycobacterium butyricum) in the rat. In words: antiinflammatory effect in adjuvant arthritis (paw edema, necrosis index). In kind it is in vivo. As to conditions: 30 mg. As for the experimental part:
as §1
The antiflammatory effect was quantitatively measured, as quoted above, using the volume of the edema of the paw and using the standard necrosis index.

Experiment [7] has as its system erythrocytes. The note with it: treatment with pentoxifylline; cited from earlier work.
Experiment [8] has as its system platelets. The note with it: only at concentrations above those used in medicinal treatment; cited from earlier work.
The subject of experiment [9] is rat aortas. As to conditions: rat aortas ex vivo, treatment of the animals; cited from earlier work.

SMILES strings stand for the structures.

On to `CC(C)Cn1c(=O)c2c(ncn2CCCCC(C)O)n(C)c1=O` (stereo not drawn) [1-(2-Methylpropyl)-3-methyl-7-(5-hydroxyhexyl)-xanthine], for which, in [1], the “percentage improvement compared with the placebo controls” value came to 39% and the inhibition in vivo at 10 mg/kg was 29%.
For the compound `CC(=O)CCCCn1cnc2c1c(=O)n(CC(C)C)c(=O)n2C` [1-(2-Methylpropyl)-3-methyl-7-(5-oxohexyl-)-xanthine], in experiment [1], the “percentage improvement compared with the placebo controls” value came to 39% and the inhibition in vivo at 10 mg/kg turned out to be 28%.
With `CC(C)CCn1c(=O)c2c(ncn2CCCCC(C)O)n(C)c1=O` (stereo not drawn) [1-(3-Methylbutyl)-3-methyl-7-(5-hydroxyhexyl-)-xanthine], in experiment [1], the “percentage improvement compared with the placebo controls” value stood at 37% and the inhibition in vivo at 10 mg/kg stood at 28%.
For `CC(=O)CCCCn1cnc2c1c(=O)n(CCC(C)C)c(=O)n2C` [1-(3-Methylbutyl-3-methyl-7-(5-oxo-hexyl)-xanthine] the same measures were 35% and 26%.
On to `CCCn1cnc2c1c(=O)n(CCC(C)=O)c(=O)n2C` [1-(3-Oxobutyl)-3-methyl-7-propyl-xanthine], for which, in experiment [1], the “percentage improvement compared with the placebo controls” value is 49% and the inhibition in vivo at 10 mg/kg was 40%.
For `CC(O)CCCCn1c(=O)c2c(ncn2C)n(C)c1=O` (stereo not drawn) [1-(5-Hydroxyhexyl)-3,7-dimethyl-xanthine, 1-(5-hydroxyhexyl)-3,7-dimethylxanthine] the same measures were 68% and 52%.
Consider `CC(C)Cn1cnc2c1c(=O)n(CCCCC(C)O)c(=O)n2C` (stereo not drawn) [1-(5-Hydroxyhexyl)-3-methyl-7-(2-methyl-propyl)-xanthine], for which, in [1], the “percentage improvement compared with the placebo controls” value was 34% and the inhibition in vivo at 10 mg/kg worked out at 23%.
For `CCCn1cnc2c1c(=O)n(CCCCC(C)O)c(=O)n2C` (stereo not drawn) [1-(5-Hydroxyhexyl)-3-methyl-7-propylxanthine] the same measures were 53% and 40%.
For `CC(=O)CCCCn1c(=O)c2c(ncn2CC(C)C)n(C)c1=O` [1-(5-Oxohexyl)-3-methyl-7-(2-methyl-propyl-)-xanthine] the same measures were 39% and 28%.
`CCCn1cnc2c1c(=O)n(CCCCC(C)=O)c(=O)n2C` [1-(5-Oxohexyl)-3-methyl-7-propylxanthine]: in experiment [1], the “percentage improvement compared with the placebo controls” value stood at 56% and the inhibition in vivo at 10 mg/kg amounted to 42%.
With `CC(O)CCCCn1cnc2c1c(=O)n(C(C)C)c(=O)n2C` (stereo not drawn) [1-(Isopropyl)-3-methyl-7-(5-hydroxy-hexyl-)-xanthine], in [1], the “percentage improvement compared with the placebo controls” value turned out to be 36% and the inhibition in vivo at 10 mg/kg was 31%.
For `CCn1c(=O)c2c(ncn2CCCCC(C)=O)n(CC)c1=O` [1-Ethyl-3-ethyl-7-(5-oxohexyl-)-xanthine] the same measures were 48% and 41%.
For `CCCCCCn1c(=O)c2c(ncn2C)n(C)c1=O` [1-Hexyl-3,7-dimethylxanthine] the same measures were 46% and 39%.
On to `CCCn1c(=O)c2c(ncn2CCCCC(C)O)n(C)c1=O` (stereo not drawn) [1-Propyl-3-methyl-7-(5-hydroxyhexyl-)-xanthine], for which, in [1], the “percentage improvement compared with the placebo controls” value was 42% and the inhibition in vivo at 10 mg/kg was determined as 35%.
For `CCCCn1c(=O)c2c(ncn2CC(C)=O)n(CCCC)c1=O` [1-n-Butyl-3-n-butyl-7-(2-oxopropyl-)-xanthine] the same measures were 50% and 33%.
Turning to `CC(=O)Oc1ccccc1C(=O)O` [DL-Lysine monoacetylsalicylate, D,L-lysine monoacetylsalicylate], the “Aggregation amplitude E ex vivo” value in experiment [2] (I, at 30 min, 1,5 mg/kg i.v. at 15 min) is reported as 23,5; in experiment [2] (I, at 45 min, 1,5 mg/kg i.v. at 15 min and 0,5 mg/kg at 35 min), 19,5.
Turning to `CC(=O)CCCCn1c(=O)c2c(ncn2C)n(C)c1=O` [Pentoxifylline, 1-(5-oxohexyl)-3,7-dimethylxanthine], in [1] (5 mg/kg oral), the “Changes from controls, %” value came out at 21%; the “Changes from controls, absolute” value is recorded as 0,46; the Number of shots was 2,63. Further, in experiment [1] (10 mg/kg oral), the “Changes from controls, %” value was found to be 54%; the “Changes from controls, absolute” value is 1,16; the Number of shots is given as 3,33. For the same compound, in experiment [1] (30 mg/kg oral), the “Changes from controls, %” value was 83%; the “Changes from controls, absolute” value was 1,8; the Number of shots is on record as 3,97. In addition, the “-x (number of shots)” value in experiment [1] (Table 1b, 10 mg/kg pentoxifylline orally without acetylsalicylic acid) was 3,27. The “% change from controls” value in [1] (Table 1b, 10 mg/kg pentoxifylline orally without acetylsalicylic acid, p < 0,05) was “+49%”. In experiment [1] (oral dose 10 mg/kg), the “effect in laser-induced thrombosis” value is “significant effect”. Moreover, in [1] (single oral dose 5 mg/kg), the “effect in laser-induced thrombosis” value was “not significant” and the “inhibition of thrombus formation” value was determined as 20%. In addition, in [2] (III, at 45 min, 10 mg/kg i.v. at 15 min), the “Aggregation amplitude E ex vivo” value came to 22. The “Aggregation amplitude E ex vivo” value in [2] (III, at 120 min, 10 mg/kg i.v. at 15 min and 10 mg/kg at 60 min) was 20. Moreover, the erythrocyte filterability in experiment [3] (30 mg) was 79%. Further, the “erythrocyte filterability in arthritic rats (in words)” value in [3] was “can be increased again”. Further, in [4], the “tendency to thrombosis (number of shots)” value is recorded as 87%. The induced platelet aggregation in [5] was 94%. In addition, in [6], the “Percentage improvement, volume of paw edema, left paw” value is 3% and the “Percentage improvement, volume of paw edema, right paw” value turned out to be 0%. In [7], the “deformability of the erythrocytes” value is on record as “improved”. The “in vitro aggregation of platelets” value in experiment [8] is reported as “can be inhibited”. Besides, in experiment [9], the “release of a substance having antiaggregatory activity” value is on record as “can be increased”.

Source of the values: patent publication US4880791A, “Combination product composed of xanthine derivatives and O-acetylsalicylic acid or its pharmacologically tolerated salts, and its use” (priority 1984, dated 1989).
